The NIST ThermoML archive (doi:10.1021/acs.jced.7b00267)

Settings: 101.35 kPa, Liquid; for viscosity: Falling or rolling sphere viscometry; for mass density: Vibrating tube method

CCO [ethanol]
Settings	mass density [kg/m3]	viscosity [mPa·s]
293.15 K	789.5	1.194
298.15 K	785.2	1.085
303.15 K	780.8	0.9897
308.15 K	776.5	0.9036
313.15 K	772.1	0.8277
318.15 K	767.7	0.759
323.15 K	763.2	0.6978
328.15 K	758.7	0.6434
333.15 K	754.1	0.5942
